# According to article PMC2000878, “Module structure of interphotoreceptor retinoid-binding protein (IRBP) may provide bases for its complex role in the visual cycle – structure/function study of Xenopus IRBP” (BMC Biochemistry, 2007):
# Read-outs that look alike come from different tables or passages of the source.
# Columns and labels:
# Xenopus IRBP Module 2 = molecular target: T1, Xenopus IRBP Module 2 (Xenopus laevis, UniProt Q7SZI7); set-up: method as in Loew et al. Exp Eye Res. 2001, 73:257–264; conditions: ref Loew et al. Exp Eye Res. 2001, 73:257–264, cited from earlier work
# T1 construct: cDNAs corresponding to the full-length IRBP, module 1, and module 2 were expressed in pThioHis; modules 3 and 4 were expressed in pTrxFus; made in house; host or cells: E. coli Top10 (pThioHis)
# T1 sequence (Q7SZI7 319-617 limits assumed): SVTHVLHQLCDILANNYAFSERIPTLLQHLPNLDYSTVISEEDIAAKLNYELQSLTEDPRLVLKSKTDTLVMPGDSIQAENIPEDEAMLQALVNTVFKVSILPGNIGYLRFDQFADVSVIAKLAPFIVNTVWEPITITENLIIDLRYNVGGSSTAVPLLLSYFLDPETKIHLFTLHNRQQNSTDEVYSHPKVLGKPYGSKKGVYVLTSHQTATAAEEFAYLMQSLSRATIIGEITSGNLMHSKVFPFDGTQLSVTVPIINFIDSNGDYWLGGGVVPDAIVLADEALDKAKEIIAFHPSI
# [1] = molecular target: X(3,4)IRBP (Xen IRBP modules 3&4) (Xenopus laevis, UniProt Q7SZI7); assay: Fluorometric titration, retinol fluorescence enhancement, double module; format: binding; conditions: ex 330 nm, em 480 nm, protein 0.57 μM
# Text: (§1) Why do the number of sites from individual modules add up to more than that detected in the full-length IRBP? Here we asked whether the number of sites within individual modules could at least predict the number in recombinant proteins consisting of two modules. We had originally anticipated that the sum of sites from individual modules would give the number in such "module pairs". However, this turned out to be not always true. We expressed and purified module combinations 1&2 and 3&4, termed X(1,2)IRBP and X(3,4)IRBP respectively. Binding of all-trans retinol to these module pairs was characterized by fluorometric titrations monitoring retinol-fluorescence enhancement (Figure 10). For X(1,2)IRBP, N = 2.45 ± 0.11 (2.40 sites were predicted from the sum of individual modules 1 plus 2). In contrast, N for X(3,4)IRBP was 1.43 ± 0.21 sites (predicted, 3.83 sites). […] That is, some sites may not be solvent exposed in the intact IRBP as they are within individual modules. […] Therefore it is plausible that some binding sites that are solvent exposed in the individual module are buried in the intact […]. To address this question, ongoing studies in our laboratories are aimed at determining the X-ray crystal structure of IRBPs composed of multiple modules.
# (§2) Figure 10 Retinol binding to Xenopus IRBPs consisting of two contiguous modules. Binding of double modules IRBPs with all-trans retinol as followed during titrations by monitoring the increase in retinol fluorescence (excitation, 330 nm; emission, 480 nm). The concentration of the IRBP double module was: modules 1&2, 0.67 μM; modules 3&4, 0.57 μM.
# (§3) Enhancement of retinol fluorescence and quenching of the intrinsic protein fluorescence were used to monitor binding of all-trans retinol to the recombinant IRBPs. We previously derived an equation that is generally useful for describing such quantum yield changes that are consequent upon ligand binding. This equation has been previously applied to the analysis of binding by monitoring the enhancement of retinol fluorescence. In this case, where excitation is at 330 nm and emission is monitored at 480, the fluorescence enhancement (Fenh) depends on the total retinol concentration (Rt), the dissociation constant (Kd ^all-trans), the number of retinol-binding sites per protein molecule (N) and the total protein concentration (Pt).
# (§4) Assuming that there is a single type of noninteracting site on the protein, (Fenh) is expected to be linearly related to the concentration of bound retinol molecules. […]
# (§5) The equation was fit to the data by nonlinear least-squares analysis. To follow the quenching of the protein's intrinsic fluorescence the excitation and emission wavelengths were set to 280 nm and 340 nm, respectively, while the protein was titrated with all-trans retinol. […]
# [2] = molecular target: X(1,2)IRBP (Xen IRBP modules 1&2) (Xenopus laevis, UniProt Q7SZI7); assay: as above; format: binding; conditions: ex 330 nm, em 480 nm, protein 0.67 μM
# Text: as §1, §2, §3, §4, §5
# Xenopus IRBP Module 3 = molecular target: T2, Xenopus IRBP Module 3 (Xenopus laevis, UniProt Q7SZI7); assay: Fluorometric titration (enhancement, quenching); format: binding
# T2 construct: cDNAs corresponding to the full-length IRBP, module 1, and module 2 were expressed in pThioHis; modules 3 and 4 were expressed in pTrxFus; made in house; host or cells: E. coli GI724 / GI698 (pTrxFus)
# Text: as §3
# (§6) Assuming that there is a single type of noninteracting site on the protein, (Fenh) is expected to be linearly related to the concentration of bound retinol molecules. Fenh is given by the relation
# (§7) Fenh=C1+C2[Rtall−trans−(Rtall−trans+NPt+Kdall−trans)^2−4NPtRtall−trans] MathType@MTEF@5@5@+=feaafiart1ev1aaatCvAUfKttLearuWrP9MDH5MBPbIqV92AaeXatLxBI9gBaebbnrfifHhDYfgasaacH8akY=wiFfYdH8Gipec8Eeeu0xXdbba9frFj0=OqFfea0dXdd9vqai=hGuQ8kuc9pgc9s8qqaq=dirpe0xb9q8qiLsFr0=vr0=vr0dc8meaabaqaciaacaGaaeqabaqabeGadaaakeaacqWGgbGrdaWgaaWcbaGaemyzauMaemOBa4MaemiAaGgabeaakiabg2da9iabdoeadnaaBaaaleaacqaIXaqmaeqaaOGaey4kaSIaem4qam0aaSbaaSqaaiabikdaYaqabaGcdaWadaqaaiabdkfasnaaDaaaleaacqWG0baDaeaacqWGHbqycqWGSbaBcqWGSbaBcqGHsislcqWG0baDcqWGYbGCcqWGHbqycqWGUbGBcqWGZbWCaaGccqGHsisldaGcaaqaamaabmaabaGaemOuai1aa0baaSqaaiabdsha0bqaaiabdggaHjabdYgaSjabdYgaSjabgkHiTiabdsha0jabdkhaYjabdggaHjabd6gaUjabdohaZbaakiabgUcaRiabd6eaojabdcfaqnaaBaaaleaacqWG0baDaeqaaOGaey4kaSIaem4saS0aa0baaSqaaiabdsgaKbqaaiabdggaHjabdYgaSjabdYgaSjabgkHiTiabdsha0jabdkhaYjabdggaHjabd6gaUjabdohaZbaaaOGaayjkaiaawMcaamaaCaaaleqabaGaeGOmaidaaOGaeyOeI0IaeGinaqJaemOta4Kaemiuaa1aaSbaaSqaaiabdsha0bqabaGccqWGsbGudaqhaaWcbaGaemiDaqhabaGaemyyaeMaemiBaWMaemiBaWMaeyOeI0IaemiDaqNaemOCaiNaemyyaeMaemOBa4Maem4CamhaaaqabaaakiaawUfacaGLDbaaaaa@8490@
# (§8) The equation was fit to the data by nonlinear least-squares analysis. To follow the quenching of the protein's intrinsic fluorescence the excitation and emission wavelengths were set to 280 nm and 340 nm, respectively, while the protein was titrated with all-trans retinol. For the quenching studies the inner filter effect was accounted for by graphical correction as previously described. Fluorescence measurements were made using an SLM 8000TM C photon counting spectrofluorometer corrected for wavelength dependence of source energy and detector response.
# Xenopus IRBP Module 4 = molecular target: T3, Xenopus IRBP Module 4 (Xenopus laevis, UniProt Q7SZI7); assay: Fluorometric titration (enhancement, quenching); format: binding
# T3 construct: cDNAs corresponding to the full-length IRBP, module 1, and module 2 were expressed in pThioHis; modules 3 and 4 were expressed in pTrxFus; made in house; host or cells: E. coli GI724 / GI698 (pTrxFus)
# Text: as §3, §6, §7, §8
# [3] = all-trans retinol fluorescence enhancement, ex 330 nm, em 480 nm
# [4] = all-trans retinol fluorescence enhancement, ex 330 nm, em 480 nm, read-out: Kd, Enhancement
# [5] = quenching by all-trans retinol, ex 280 nm, em 340 nm, read-out: Kd, Quenching
# T2 sequence (Q7SZI7 616-922): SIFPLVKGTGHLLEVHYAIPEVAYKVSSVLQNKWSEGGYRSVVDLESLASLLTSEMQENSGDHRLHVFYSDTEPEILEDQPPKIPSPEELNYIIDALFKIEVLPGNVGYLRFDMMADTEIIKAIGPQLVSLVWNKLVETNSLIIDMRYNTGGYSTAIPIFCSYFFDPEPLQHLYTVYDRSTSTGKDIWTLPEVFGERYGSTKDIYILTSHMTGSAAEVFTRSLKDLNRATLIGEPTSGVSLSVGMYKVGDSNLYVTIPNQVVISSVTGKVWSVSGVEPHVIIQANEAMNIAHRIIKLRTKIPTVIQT
# T3 sequence (Q7SZI7 923-1219): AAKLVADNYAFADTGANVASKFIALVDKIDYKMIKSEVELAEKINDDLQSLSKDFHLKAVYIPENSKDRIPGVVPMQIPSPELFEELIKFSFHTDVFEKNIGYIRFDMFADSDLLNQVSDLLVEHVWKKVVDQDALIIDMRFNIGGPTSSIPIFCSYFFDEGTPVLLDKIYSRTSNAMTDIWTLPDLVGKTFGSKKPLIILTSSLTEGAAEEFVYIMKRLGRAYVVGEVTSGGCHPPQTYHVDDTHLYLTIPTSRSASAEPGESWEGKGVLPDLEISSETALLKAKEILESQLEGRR
# Sequence of X(1,2)IRBP (Xen IRBP modules 1&2) (Q7SZI7 23-617): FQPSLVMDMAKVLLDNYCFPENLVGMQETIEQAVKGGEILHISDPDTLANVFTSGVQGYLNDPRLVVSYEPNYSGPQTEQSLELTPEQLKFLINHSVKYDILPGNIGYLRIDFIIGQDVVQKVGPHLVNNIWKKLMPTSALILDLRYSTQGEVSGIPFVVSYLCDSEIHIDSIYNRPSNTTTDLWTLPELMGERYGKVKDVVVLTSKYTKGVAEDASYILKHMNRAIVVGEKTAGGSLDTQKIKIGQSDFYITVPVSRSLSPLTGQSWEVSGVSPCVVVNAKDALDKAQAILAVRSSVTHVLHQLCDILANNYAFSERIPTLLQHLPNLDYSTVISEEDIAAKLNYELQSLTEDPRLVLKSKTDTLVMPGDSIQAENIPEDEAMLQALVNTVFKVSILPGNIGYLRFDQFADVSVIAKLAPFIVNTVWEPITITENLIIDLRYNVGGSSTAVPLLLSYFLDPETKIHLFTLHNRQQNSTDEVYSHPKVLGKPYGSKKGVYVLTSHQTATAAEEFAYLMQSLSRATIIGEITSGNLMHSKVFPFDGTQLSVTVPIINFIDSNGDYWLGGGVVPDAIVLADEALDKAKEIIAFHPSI
# Sequence of X(3,4)IRBP (Xen IRBP modules 3&4) (Q7SZI7 618-1219): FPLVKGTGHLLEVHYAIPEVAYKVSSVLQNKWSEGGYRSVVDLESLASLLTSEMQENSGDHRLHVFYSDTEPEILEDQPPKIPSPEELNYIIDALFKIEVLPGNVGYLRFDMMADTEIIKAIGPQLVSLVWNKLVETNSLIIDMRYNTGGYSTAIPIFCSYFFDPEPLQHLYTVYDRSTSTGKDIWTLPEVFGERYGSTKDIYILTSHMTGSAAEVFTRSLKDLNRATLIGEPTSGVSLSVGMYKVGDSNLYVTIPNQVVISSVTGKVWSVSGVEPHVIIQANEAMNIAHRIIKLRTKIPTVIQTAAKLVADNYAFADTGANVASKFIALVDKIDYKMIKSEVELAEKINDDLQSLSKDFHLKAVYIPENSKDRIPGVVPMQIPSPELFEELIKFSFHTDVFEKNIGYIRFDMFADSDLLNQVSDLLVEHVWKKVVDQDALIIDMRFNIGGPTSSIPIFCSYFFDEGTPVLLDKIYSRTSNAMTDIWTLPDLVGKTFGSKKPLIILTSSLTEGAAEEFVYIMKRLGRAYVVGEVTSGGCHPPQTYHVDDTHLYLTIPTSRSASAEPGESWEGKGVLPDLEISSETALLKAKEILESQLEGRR
smiles,measurement,setting,value
CC1=C(/C=C/C(C)=C/C=C/C(C)=C/CO)C(C)(C)CCC1 [all-trans retinol],"Binding sites (N), Enhancement",Xenopus IRBP Module 2; [3],1.57 ± 0.04
same,Kd,Xenopus IRBP Module 2; [4],84 ± 22 nM
same,"Binding sites (N), Quenching","Xenopus IRBP Module 2; quenching by all-trans retinol, ex 280 nm, em 340 nm",1.31 ± 0.06
same,Kd,Xenopus IRBP Module 2; [5],140 ± 40 nM
same,Binding sites (N),[1],1.43 ± 0.21
same,Kd,[1],190 ± 50 nM
same,Binding sites (N),[2],2.45 ± 0.11
same,Kd,[2],49 ± 23 nM
same,"Binding sites (N), Enhancement",Xenopus IRBP Module 3; [3],1.83 ± 0.42
same,Kd,Xenopus IRBP Module 3; [4],1180 ± 410 nM
same,Kd,Xenopus IRBP Module 3; [5],310 ± 40 nM
same,"Binding sites (N), Enhancement",Xenopus IRBP Module 4; [3],2.06 ± 0.53
same,Kd,"Xenopus IRBP Module 4; all-trans retinol fluorescence enhancement, ex 330 nm, em 480 nm, absence of 11-cis retinaldehyde, read-out: Kd, Enhancement",1790 ± 540 nM
same,Kd,Xenopus IRBP Module 4; [5],640 ± 50 nM
